Laboratory results: patent publication US20260184675A1, “CHIRAL ISOMERIC SULFITE COMPOUND AND APPLICATION THEREOF” (Chengdu Hanova BioSciences Co., Ltd, priority 2024, published 2026)

Key:
Type in all cases: in vivo
[1] = test system: eggs of Tetranychus urticae; assay: Effect on hatching of eggs of Tetranychus urticae, leaf disc method; conditions: 5 ppm; for Hatching rate (%): 5 days after insecticide delivery
How it was run: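 This leaf disc test measured inhibition of Tetranychus urticae egg hatching. Eggs laid on Vicia faba discs were counted microscopically, and the discs were soaked for 10 seconds in compound at 5 ppm, with clear water as control. They were incubated under controlled temperature and humidity with strong indirect light, avoiding condensate. Hatched eggs, leaf damage and developmental abnormalities were recorded five days after delivery.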

[2] = test system: pest eggs of Tetranychus cinnabarinus; assay: Effect on hatching of pest eggs of Tetranychus cinnabarinus, leaf disc method; conditions: for Hatching rate (%): 7 days after insecticide delivery; for inhibitory effect on the hatching of pest eggs of Tetranychus cinnabarinus (in words): 1 ppm
How it was run: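 Adult female mites laid eggs on 2.0 cm Vicia faba leaf discs for up to 36 h; discs with counted eggs were dipped 10 s in compound solution or water, then kept moist. Hatched eggs were counted 7 days after treatment and control effect was calculated by formula.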

[3] = test system: eggs of Panonychus citri; assay: Effect on hatching of eggs of Panonychus citri, leaf disc method; conditions: 1 ppm; for Hatching rate (%), Replicate 1 / Hatching rate (%), Replicate 2 / Hatching rate (%), Replicate 3 / Number of hatched larvae 5 days after insecticide delivery, Replicate 1 / Number of hatched larvae 5 days after insecticide delivery, Replicate 2 / Number of hatched larvae 5 days after insecticide delivery, Replicate 3: Panonychus citri eggs; for Hatching rate (%), Replicate 1 / Hatching rate (%), Replicate 2 / Hatching rate (%), Replicate 3: 5 days after delivery; for Number of hatched larvae 5 days after insecticide delivery, Replicate 1 / Number of hatched larvae 5 days after insecticide delivery, Replicate 2 / Number of hatched larvae 5 days after insecticide delivery, Replicate 3: leaf disc
[4] = Replicate 1, listed as 19′-(S, S)
[5] = Replicate 2, listed as 19′-(S, S)

`CC[C@@H](COS(=O)OCCF)Oc1ccc(Cl)cc1Cl` (stereo partly drawn) [19′-(S,S)] was tested, and the “inhibitory activity on the hatching of eggs of Tetranychus urticae (in words)” value (shortened to “inhibitory activity on the hatching”) [1] was “strong inhibitory activities”, the “Hatching rate (%)” value [1, 4] was 0.00% and the “Hatching rate (%)” value [1, 5] was 0.00%. The “Number of hatched larvae 5 days after insecticide delivery” value [1, 4] was 0, the “Number of hatched larvae 5 days after insecticide delivery” value [1, 5] was 0 and the “Hatching rate (%)” value ([2]; 0.25 mg/L, Replicate 1) was 40.82%. For the same compound, the “Hatching rate (%)” value ([2]; 0.25 mg/L, Replicate 2) was 39.73%, the “Number of hatched larvae 7 days after insecticide delivery” value (“Number of hatched larvae 7 days” for short) ([2]; 0.25 mg/L, Replicate 1) was 29 and the “Number of hatched larvae 7 days” value ([2]; 0.25 mg/L, Replicate 2) was 44. For the same compound, the “Hatching rate (%)” value ([2]; 0.5 mg/L, Replicate 1) was 5.71%, the “Hatching rate (%)” value ([2]; 0.5 mg/L, Replicate 2) was 3.57% and the “Number of hatched larvae 7 days” value ([2]; 0.5 mg/L, Replicate 1) was 66. For the same compound, the “Number of hatched larvae 7 days” value ([2]; 0.5 mg/L, Replicate 2) was 54, the “Hatching rate (%)” value ([2]; 1 mg/L, Replicate 1) was 0.00% and the “Hatching rate (%)” value ([2]; 1 mg/L, Replicate 2) was 0.00%. The “Number of hatched larvae 7 days” value ([2]; 1 mg/L, Replicate 1) was 56, the “Number of hatched larvae 7 days” value ([2]; 1 mg/L, Replicate 2) was 49 and the “inhibitory effect on the hatching of pest eggs of Tetranychus cinnabarinus (in words)” value [2] was “excellent inhibitory effects”. For the same compound, the “inhibitory effect on the hatching of eggs of Panonychus citri (in words)” value [3] was “good inhibitory effects”, the “Hatching rate (%), Replicate 1” value ([3]; listed as 19′-(S, S)) was 0.00% and the “Hatching rate (%), Replicate 2” value ([3]; listed as 19′-(S, S)) was 0.00%. For the same compound, the “Hatching rate (%), Replicate 3” value ([3]; listed as 19′-(S, S)) was 0.00%, the “Number of hatched larvae 5 days after insecticide delivery, Replicate 1” value (from here on “Number of hatched larvae 5 days … Replicate 1”) ([3]; listed as 19′-(S, S)) was 0 and the “Number of hatched larvae 5 days after insecticide delivery, Replicate 2” value (from here on “Number of hatched larvae 5 days … Replicate 2”) ([3]; listed as 19′-(S, S)) was 0. The “Number of hatched larvae 5 days after insecticide delivery, Replicate 3” value (from here on “Number of hatched larvae 5 days … Replicate 3”) ([3]; listed as 19′-(S, S)) was 0.

With `CC(COS(=O)OCCF)Oc1ccc(Cl)cc1Cl` (stereo not drawn) [Compound 1] the “inhibitory activity on the hatching” value [1] was “strong inhibitory activities”, the “Hatching rate (%)” value ([1]; Replicate 1) was 0.94% and the “Hatching rate (%)” value ([1]; Replicate 2) was 1.30%. The “Number of hatched larvae 5 days after insecticide delivery” value ([1]; Replicate 1) was 1, the “Number of hatched larvae 5 days after insecticide delivery” value ([1]; Replicate 2) was 1 and the “Hatching rate (%)” value ([2]; 0.25 mg/L, Replicate 1) was 72.22%. For the same compound, the “Hatching rate (%)” value ([2]; 0.25 mg/L, Replicate 2) was 67.92%, the “Number of hatched larvae 7 days” value ([2]; 0.25 mg/L, Replicate 1) was 20 and the “Number of hatched larvae 7 days” value ([2]; 0.25 mg/L, Replicate 2) was 17. For the same compound, the “Hatching rate (%)” value ([2]; 0.5 mg/L, Replicate 1) was 32.58%, the “Hatching rate (%)” value ([2]; 0.5 mg/L, Replicate 2) was 38.30% and the “Number of hatched larvae 7 days” value ([2]; 0.5 mg/L, Replicate 1) was 42. The “Number of hatched larvae 7 days” value ([2]; 0.5 mg/L, Replicate 2) was 29, the “Hatching rate (%)” value ([2]; 1 mg/L, Replicate 1) was 0.00% and the “Hatching rate (%)” value ([2]; 1 mg/L, Replicate 2) was 1.64%. The “Number of hatched larvae 7 days” value ([2]; 1 mg/L, Replicate 1) was 53, the “Number of hatched larvae 7 days” value ([2]; 1 mg/L, Replicate 2) was 60 and the “inhibitory effect on the hatching of pest eggs of Tetranychus cinnabarinus (in words)” value [2] was “excellent inhibitory effects”. For the same compound, the “inhibitory effect on the hatching of eggs of Panonychus citri (in words)” value [3] was “good inhibitory effects”, the “Hatching rate (%), Replicate 1” value [3] was 0.00% and the “Hatching rate (%), Replicate 2” value [3] was 0.00%. For the same compound, the “Hatching rate (%), Replicate 3” value [3] was 0.00%, the “Number of hatched larvae 5 days … Replicate 1” value [3] was 0 and the “Number of hatched larvae 5 days … Replicate 2” value [3] was 0. For the same compound, the “Number of hatched larvae 5 days … Replicate 3” value [3] was 0.

With `CC(COc1ccc(Cl)cc1Cl)OS(=O)OCCF` (stereo not drawn) [Compound 1′] the “inhibitory activity on the hatching” value [1] was “strong inhibitory activities”, the “Hatching rate (%)” value ([1]; Replicate 1) was 0.00% and the “Hatching rate (%)” value ([1]; Replicate 2) was 1.98%. For the same compound, the “Number of hatched larvae 5 days after insecticide delivery” value ([1]; Replicate 1) was 0, the “Number of hatched larvae 5 days after insecticide delivery” value ([1]; Replicate 2) was 2 and the “Hatching rate (%)” value ([2]; 0.25 mg/L, Replicate 1) was 69.81%. For the same compound, the “Hatching rate (%)” value ([2]; 0.25 mg/L, Replicate 2) was 70.83%, the “Number of hatched larvae 7 days” value ([2]; 0.25 mg/L, Replicate 1) was 16 and the “Number of hatched larvae 7 days” value ([2]; 0.25 mg/L, Replicate 2) was 21. The “Hatching rate (%)” value ([2]; 0.5 mg/L, Replicate 1) was 36.24%, the “Hatching rate (%)” value ([2]; 0.5 mg/L, Replicate 2) was 31.11% and the “Number of hatched larvae 7 days” value ([2]; 0.5 mg/L, Replicate 1) was 42. The “Number of hatched larvae 7 days” value ([2]; 0.5 mg/L, Replicate 2) was 31, the “Hatching rate (%)” value ([2]; 1 mg/L, Replicate 1) was 0.00% and the “Hatching rate (%)” value ([2]; 1 mg/L, Replicate 2) was 1.69%. The “Number of hatched larvae 7 days” value ([2]; 1 mg/L, Replicate 1) was 47, the “Number of hatched larvae 7 days” value ([2]; 1 mg/L, Replicate 2) was 58 and the “inhibitory effect on the hatching of pest eggs of Tetranychus cinnabarinus (in words)” value [2] was “excellent inhibitory effects”. The “inhibitory effect on the hatching of eggs of Panonychus citri (in words)” value [3] was “good inhibitory effects”, the “Hatching rate (%), Replicate 1” value [3] was 0.93% and the “Hatching rate (%), Replicate 2” value [3] was 0.00%. For the same compound, the “Hatching rate (%), Replicate 3” value [3] was 0.00%, the “Number of hatched larvae 5 days … Replicate 1” value [3] was 1 and the “Number of hatched larvae 5 days … Replicate 2” value [3] was 0. For the same compound, the “Number of hatched larvae 5 days … Replicate 3” value [3] was 0.
